≈ marks a conversion by molar mass, not a printed value.
Experiments:
[1] = tested on: MT4; test: In vitro antiviral activity against HIV-1 in MT-4 Cell; format: functional; conditions: Homo sapiens; for EC50: read-out: ED50 (the source's name); for IC50: read-out: ID50 (the source's name)
[2] = Therapeutic index (TI) was determined by dividing the ID50 by the ED50; format: cell-based; conditions: human, MT4 cells; read-out: TI

Row | Compound | EC50 [1] [µg/mL] | IC50 [1] [µg/mL] | selectivity ratio [2]
1 | Nc1nc(O)c2ncn(C3C=CC(CO)C3CO)c2n1 (stereo not given) | > 100 | > 100 | 
2 | Nc1ccn([C@H]2CC[C@@H](CO)O2)c(=O)n1 [ZALCITABINE] | 0.011 (≈ 0.0521 µM) | 27 (≈ 128 µM) | 2450
